According to PubChem BioAssay (NCI):
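Cells were grown in 96-well plates and exposed to each compound for 48 hours at five concentrations; endpoints were interpolated linearly between bracketing concentrations, or set to the highest concentration if not reached. TGI is the concentration that stops growth completely.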

How the values were obtained:
Assay in all cases: NCI tumour cell line growth inhibition, 48 h
[1] = tested on: 786-0 renal
[2] = tested on: ACHN renal
[3] = tested on: CAKI-1 renal
[4] = tested on: EKVX NSCLC
[5] = tested on: HCC-2998 colon
[6] = tested on: HL-60(TB) leukemia
[7] = tested on: HT29 colon
[8] = tested on: M14 melanoma
[9] = tested on: MALME-3M melanoma
[10] = tested on: MCF7 breast
[11] = tested on: MDA-MB-231 breast
[12] = tested on: OVCAR-4 ovarian
[13] = tested on: RPMI-8226 leukemia
[14] = tested on: SF-295 CNS
[15] = tested on: SK-MEL-2 melanoma
[16] = tested on: SK-OV-3 ovarian
[17] = tested on: U251 CNS
[18] = tested on: UACC-257 melanoma
[19] = tested on: UACC-62 melanoma

Row | Structure (SMILES) | TGI [1] [µM] | TGI [2] [µM] | TGI [3] [µM] | TGI [4] [µM] | TGI [5] [µM] | TGI [6] [µM] | TGI [7] [µM] | TGI [8] [µM] | TGI [9] [µM] | TGI [10] [µM] | TGI [11] [µM] | TGI [12] [µM] | TGI [13] [µM] | TGI [14] [µM] | TGI [15] [µM] | TGI [16] [µM] | TGI [17] [µM] | TGI [18] [µM] | TGI [19] [µM]
1 | COc1cc(C2c3cc4c(cc3OC(NCCc3ccccc3)C2C)OCO4)cc(OC)c1OC (configuration not stated) | 18.1 | > 51.8 | 0.939 | > 94 | 0.85 | 0.547 | 11.1 | > 47.6 | 17.6 | 15.4 | 1.02 | > 47.7 | 14.7 | 1.98 | > 42.1 | > 100 | 14.7 | > 85.5 | 35.3
2 | CCCCCCSCC/C(C)=N\OC | > 100 | > 100 | > 100 | > 100 | > 100 | > 100 | > 100 | > 100 | > 100 | > 100 | > 100 | > 100 | > 100 | > 100 | > 100 | > 100 | > 100 | > 100 | > 100
3 | CCCCOCOc1ccccc1P1(=O)COc2ccccc2OC1 | > 100 | > 100 | > 100 | > 100 | > 100 | > 100 | > 100 | > 100 | > 100 | > 100 | > 100 | > 100 | > 100 | > 100 | > 100 | > 100 | > 100 | > 100 | > 100
4 | NS(=O)(=O)c1nnc(NC(=O)c2cccc([N+](=O)[O-])c2)s1 | > 100 | > 100 | > 100 | > 100 | > 100 | > 100 |  | > 100 | > 100 | > 100 | > 100 | > 100 | > 100 | > 100 | > 100 | > 100 | > 100 | > 100 | > 100
5 | O=[N+]([O-])c1ccc(C2=NOC(c3ccc(Cl)cc3)N2C23CC4CC(CC(C4)C2)C3)cc1 (configuration not stated) | > 100 | > 100 | > 100 | > 100 | > 100 | > 100 | > 100 | > 100 | > 100 | > 100 | > 100 | > 100 | > 100 | > 100 | > 100 | > 100 | > 100 | > 100 | > 100
6 | CCOC(=O)c1nc2ccccc2nc1Nc1ccc(OC)cc1 | > 100 | > 100 | 56.6 | > 100 | > 100 | > 100 | > 100 | > 100 | > 100 | > 100 | 51.3 | 55.7 | > 100 | 54.4 | > 100 |  | > 100 | > 100 | 66.6
